The record followed here is patent US8435980B2 (AbbVie Inc., priority 2009, dated 2013).

This assay deals with T1, Cdc7 (BEV coexpressed huCDC7/DBF4) (Homo sapiens, UniProt O00311).
T1 construct: made in house; host or cells: BEV (baculovirus expression vector) co-expression; insect cells are implied but no cell line is named
Put plainly: Cdc7 enzyme inhibition assay ([33P]ATP, biotinylated peptide substrate, FlashPlate). The conditions noted are these: Table 3; enzyme inhibition data (Ki). The format is biochemical. As for the experimental part:
Cdc7 (BEV coexpressed huCDC7/DBF4) is prepared internally. Cdc7 assays are conducted as follows with final concentrations as listed. […] Reactions are quenched after 1 hr by the addition of 90 μL stop buffer (50 mM EDTA, 2M NaCl). […] (Ki) for exemplary compounds.

In general, Ki refers to a dissociation constant, usually derived from enzyme kinetics or from competition with a known ligand. High values mean a looser hold on the target, low ones a stronger hold on the target.

T1 sequence (O00311 whole entry): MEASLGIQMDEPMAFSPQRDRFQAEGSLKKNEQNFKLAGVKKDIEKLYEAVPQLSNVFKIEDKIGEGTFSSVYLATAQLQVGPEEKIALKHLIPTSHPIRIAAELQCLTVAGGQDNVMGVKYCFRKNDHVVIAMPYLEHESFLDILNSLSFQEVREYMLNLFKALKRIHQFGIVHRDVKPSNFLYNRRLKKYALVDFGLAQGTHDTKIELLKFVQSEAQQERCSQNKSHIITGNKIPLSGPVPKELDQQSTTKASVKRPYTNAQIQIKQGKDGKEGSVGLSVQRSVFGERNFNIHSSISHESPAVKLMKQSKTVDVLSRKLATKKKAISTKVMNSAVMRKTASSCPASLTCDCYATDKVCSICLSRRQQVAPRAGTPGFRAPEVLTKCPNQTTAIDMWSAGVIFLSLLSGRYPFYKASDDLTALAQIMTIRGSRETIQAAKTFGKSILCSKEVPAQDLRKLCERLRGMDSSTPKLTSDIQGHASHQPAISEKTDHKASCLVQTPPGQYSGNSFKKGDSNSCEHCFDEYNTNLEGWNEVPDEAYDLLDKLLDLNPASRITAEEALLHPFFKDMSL
T1 sequence (Q9UBU7 whole entry partner): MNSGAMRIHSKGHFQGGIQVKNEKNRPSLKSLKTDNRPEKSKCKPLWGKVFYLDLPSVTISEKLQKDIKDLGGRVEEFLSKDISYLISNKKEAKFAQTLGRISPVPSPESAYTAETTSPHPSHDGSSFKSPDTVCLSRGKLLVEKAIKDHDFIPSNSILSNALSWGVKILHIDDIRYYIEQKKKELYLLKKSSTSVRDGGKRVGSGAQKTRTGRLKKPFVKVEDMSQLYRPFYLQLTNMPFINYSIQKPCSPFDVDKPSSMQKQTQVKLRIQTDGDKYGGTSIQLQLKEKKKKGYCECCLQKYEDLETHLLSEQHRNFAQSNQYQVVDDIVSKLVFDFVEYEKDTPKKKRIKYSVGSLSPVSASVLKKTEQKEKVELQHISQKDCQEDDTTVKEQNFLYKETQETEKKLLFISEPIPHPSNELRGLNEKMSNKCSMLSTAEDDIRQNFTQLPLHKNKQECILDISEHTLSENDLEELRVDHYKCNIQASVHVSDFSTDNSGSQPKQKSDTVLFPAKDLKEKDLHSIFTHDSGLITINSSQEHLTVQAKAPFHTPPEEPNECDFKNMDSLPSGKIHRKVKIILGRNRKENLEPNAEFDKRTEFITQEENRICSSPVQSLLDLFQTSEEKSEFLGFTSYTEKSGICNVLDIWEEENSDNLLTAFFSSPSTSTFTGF

Consider `CN(C)c1ccc(NC(=O)N[C@H]2CC[C@H](Nc3nc(Cl)cc(-c4c[nH]c5ncccc45)n3)CC2)cc1` [Example 471, 1-(trans-4-{[4-chloro-6-(1H-pyrrolo[2,3-b]pyridin-3-yl)pyrimidin-2-yl]amino}cyclohexyl)-3-[4-(dimethylamino)phenyl]urea], for which the Ki was < 10 nM. Regarding `O=C(CN1C(=O)c2ccccc2C1=O)N[C@H]1CC[C@H](Nc2nc(Cl)cc(-c3c[nH]c4ncccc34)n2)CC1` [Example 472, N-(trans-4-{[4-chloro-6-(1H-pyrrolo[2,3-b]pyridin-3-yl)pyrimidin-2-yl]amino}cyclohexyl)-2-(1,3-dioxo-1,3-dihydro-2H-isoindol-2-yl)acetamide], the Ki was < 10 nM. For `O=C1NCCN1C(=O)N[C@H]1CC[C@H](Nc2nc(Cl)cc(-c3c[nH]c4ncccc34)n2)CC1` [Example 473, N-(trans-4-{[4-chloro-6-(1H-pyrrolo[2,3-b]pyridin-3-yl)pyrimidin-2-yl]amino}cyclohexyl)-2-oxoimidazolidine-1-carboxamide], the Ki was < 10 nM. On to `OCCOCCNc1nc(Cl)cc(-c2c[nH]c3ncccc23)n1` [Example 474, 2-(2-{[4-chloro-6-(1H-pyrrolo[2,3-b]pyridin-3-yl)pyrimidin-2-yl]amino}ethoxy)ethanol], for which the Ki is < 10 nM.

On to `NCCOCCNc1nc(Cl)cc(-c2c[nH]c3ncccc23)n1` [Example 475, N-[2-(2-aminoethoxy)ethyl]-4-chloro-6-(1H-pyrrolo[2,3-b]pyridin-3-yl)pyrimidin-2-amine], for which the Ki is < 10 nM. For `Clc1cc(-c2c[nH]c3ncccc23)nc(N[C@H]2CC[C@H](NC3CCCC3)CC2)n1` [Example 477, trans-N-[4-chloro-6-(1H-pyrrolo[2,3-b]pyridin-3-yl)pyrimidin-2-yl]-N′-cyclopentylcyclohexane-1,4-diamine], the Ki is < 10 nM.

As for `O=C(CNC1CCCC1)N[C@H]1CC[C@H](Nc2nc(Cl)cc(-c3c[nH]c4ncccc34)n2)CC1` [Example 478, N-(trans-4-{[4-chloro-6-(1H-pyrrolo[2,3-b]pyridin-3-yl)pyrimidin-2-yl]amino}cyclohexyl)-N~2~-cyclopentylglycinamide], the inhibition constant Ki was < 10 nM. For `CCCS(=O)(=O)N[C@H]1CC[C@H](Nc2nc(Cl)cc(-c3c[nH]c4ncccc34)n2)CC1` [Example 479, N-(trans-4-{[4-chloro-6-(1H-pyrrolo[2,3-b]pyridin-3-yl)pyrimidin-2-yl]amino}cyclohexyl)propane-1-sulfonamide], the Ki is < 10 nM. For `CC(=O)N[C@H]1CC[C@H](Oc2nc(Cl)cc(-c3c[nH]c4ncccc34)n2)CC1` [Example 480, N-(trans-4-{[4-chloro-6-(1H-pyrrolo[2,3-b]pyridin-3-yl)pyrimidin-2-yl]oxy}cyclohexyl)acetamide], the Ki lay within 10 to 100 nM. In the case of `O=S(=O)(N[C@H]1CC[C@H](Nc2nc(Cl)cc(-c3c[nH]c4ncccc34)n2)CC1)c1ccsc1` [Example 481, N-(trans-4-{[4-chloro-6-(1H-pyrrolo[2,3-b]pyridin-3-yl)pyrimidin-2-yl]amino}cyclohexyl)thiophene-3-sulfonamide], the Ki is < 10 nM. Take `O=S(=O)(N[C@H]1CC[C@H](Nc2nc(Cl)cc(-c3c[nH]c4ncccc34)n2)CC1)c1cccs1` [Example 482, N-(trans-4-{[4-chloro-6-(1H-pyrrolo[2,3-b]pyridin-3-yl)pyrimidin-2-yl]amino}cyclohexyl)thiophene-2-sulfonamide]: the Ki was < 10 nM. In the case of “N-(3-{[6-chloro-4-(1H-pyrrolo[2,3-b]pyridin-3-yl)pyridin-2-yl]amino}cyclohexyl)-2-(dimethylamino)ethanesulfonamide [Example 154]”, the Ki was < 10 nM. For the molecule “N-{2-[(3-{[6-chloro-4-(1H-pyrrolo[2,3-b]pyridin-3-yl)pyridin-2-yl]amino}cyclohexyl)sulfamoyl]ethyl}benzamide [Example 169]”, the Ki was < 10 nM.

Turning to “{4-[(4-{[6-chloro-4-(1H-pyrrolo[2,3-b]pyridin-3-yl)pyridin-2-yl]amino}cyclohexyl)amino]piperidin-1-yl}(phenyl)methanone [Example 177]”, the Ki was < 10 nM.
